Bridge positions count the residues as written; N and C are the ends. Square brackets hold non-standard residues; d marks the D form. Peptide text beside a SMILES is read from it. d1Nal = N[C@H](Cc1cccc2ccccc12)C(=O)O; Dmt = Cc1cc(O)cc(C)c1C[C@H](N)C(=O)O
Columns and labels:
Mus musculus [1] = experiment: Antinociceptive activity in po dosed C57BL/6J mouse assessed as tail withdrawal latency from warm water; format: functional
[2] = Half life in mouse liver microsomes; format: ADME, Microsome
[3] = Toxicity in icv dosed C57BL/6J mouse assessed as antinociceptive activity tolerance; format: organism-based; settings: in vivo, icv_or_intrathecal
Mus musculus [4] = experiment: Antinociceptive activity in icv dosed C57BL/6J mouse assessed as tail withdrawal latency from warm water; format: functional
[5] = Stability in mouse serum assessed as half life; format: ADME, cell-free
[6] = target: T1, Delta-type opioid receptor (Homo sapiens, UniProt P41143); experiment: Binding affinity to DOP (unknown origin)
Mus musculus [7] = experiment: Antinociceptive activity in Kunming mouse assessed as heat paw withdrawal measured after 10 secs administered icv; format: functional; settings: time 10 sec, 10 s
Mu-type opioid receptor [8] = target: T2, Mu-type opioid receptor (Homo sapiens, UniProt P35372); experiment: Binding affinity to MOP (unknown origin)
[9] = Stability in rat brain homogenate assessed as half life; format: ADME, tissue-based
[10] = target: T3, Kappa-type opioid receptor (Rattus norvegicus, UniProt P34975); experiment: Inhibition of Wistar rat brain membrane KOP; format: cell membranes
[11] = target: Delta-type opioid receptor (Rattus norvegicus, UniProt P33533); experiment: Inhibition of Wistar rat brain membrane DOP; format: cell membranes
Mu-type opioid receptor [12] = target: T2, Mu-type opioid receptor; experiment: Agonist activity at human recombinant MOP expressed in CHO cells by calcium mobilization assay; format: functional, cell-based
Mu-type opioid receptor [13] = target: Mu-type opioid receptor (Rattus norvegicus, UniProt P33535); experiment: Inhibition of Wistar rat brain membrane MOP; format: cell membranes
Mus musculus [14] = experiment: Antinociceptive activity in Swiss albino mouse assessed tail flick response in warm water administered icv; format: functional
Mus musculus [15] = organism: Mus musculus; experiment: Antinociceptive activity in mouse by tail pressure test; format: functional; settings: Mus musculus; read-out: ED50
Mu-type opioid receptor [16] = target: Mu-type opioid receptor (Cavia porcellus, UniProt P97266); experiment: Antagonist activity at guinea pig ileum MOP; format: functional, tissue-based
Mus musculus [17] = experiment: Antinociceptive activity in mouse administered icv; format: functional
[18] = target: T1, Delta-type opioid receptor; experiment: Inhibition of DOP (unknown origin)
[19] = target: T4, Kappa-type opioid receptor (Homo sapiens, UniProt P41145); experiment: Inhibition of KOP (unknown origin)
[20] = target: T1, Delta-type opioid receptor; experiment: Displacement of [3H]DPDPE from DOP (unknown origin) stably expressed in CHO cell membrane incubated for 90 mins by scintillation counter analysis; format: cell membranes
Mu-type opioid receptor [21] = target: T2, Mu-type opioid receptor; experiment: Displacement of [3H]DAMGO from MOP (unknown origin) stably expressed in CHO cell membrane incubated for 90 mins by scintillation counter analysis; format: cell membranes
[22] = target: T4, Kappa-type opioid receptor; experiment: Displacement of [3H]diprenorphine from KOP (unknown origin) stably expressed in CHO cell membrane incubated for 90 mins by scintillation counter analysis; format: cell membranes
[23] = target: T1, Delta-type opioid receptor; experiment: Displacement of [3H]DPDPE from human DOP expressed in CHO-K1 cell membrane incubated for 60 mins by Microscint-counting analysis; format: cell membranes
Rattus norvegicus = experiment: Antinociceptive activity in Sprague-Dawley rat assessed as tail flick response in warm water administered icv; format: functional
Mu-type opioid receptor [24] = target: T2, Mu-type opioid receptor; experiment: Agonist activity at human MOP expressed in CHO-K1 cell membrane assessed as [35S]GTPgammaS binding relative to control; format: functional, cell membranes; settings: filed as agonist
Mu-type opioid receptor [25] = target: T2, Mu-type opioid receptor; experiment: Displacement of [3H]DAMGO from human MOP expressed in CHO-K1 cell membrane incubated for 60 mins by Microscint-counting analysis; format: cell membranes
Mu-type opioid receptor [26] = target: T2, Mu-type opioid receptor; experiment: Agonist activity at human MOP expressed in CHO-K1 cell membrane assessed as [35S]GTPgammaS binding; format: functional, cell membranes
[27] = target: T3, Kappa-type opioid receptor; experiment: Displacement of [3H]-norBNI from Wistar rat brain membrane KOP; format: cell membranes
Mus musculus [28] = experiment: Antinociceptive activity in ip dosed mouse assessed as tail flick latency; format: functional
[29] = target: T3, Kappa-type opioid receptor; experiment: Displacement of [3H]diprenorphine from rat KOP stably expressed in CHO cell membrane; format: cell membranes
[30] = target: T4, Kappa-type opioid receptor; experiment: Antagonist activity at human KOP stably expressed in CHO cell membrane assessed as [35S]GTPgammaS binding; format: functional, cell membranes
Mu-type opioid receptor [31] = target: T2, Mu-type opioid receptor; experiment: Antagonist activity at human MOP stably expressed in CHO cell membrane assessed as [35S]GTPgammaS binding; format: functional, cell membranes
[32] = target: Delta-type opioid receptor (Mus musculus, UniProt P32300); experiment: Displacement of [3H]DPDPE from mouse DOP stably expressed in CHO cell membrane; format: cell membranes
Sequence of Delta-type opioid receptor (Mus musculus, UniProt P32300) (P32300 whole entry): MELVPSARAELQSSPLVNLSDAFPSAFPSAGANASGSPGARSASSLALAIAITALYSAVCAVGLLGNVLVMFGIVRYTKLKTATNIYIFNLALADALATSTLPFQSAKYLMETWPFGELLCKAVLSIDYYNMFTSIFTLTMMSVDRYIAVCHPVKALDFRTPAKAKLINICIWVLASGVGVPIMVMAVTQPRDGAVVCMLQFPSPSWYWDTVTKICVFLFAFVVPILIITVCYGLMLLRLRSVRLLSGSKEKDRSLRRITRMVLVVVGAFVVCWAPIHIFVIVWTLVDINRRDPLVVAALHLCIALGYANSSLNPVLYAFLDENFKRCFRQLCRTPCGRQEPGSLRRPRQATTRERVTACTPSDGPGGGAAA

T4 sequence (P41145 whole entry): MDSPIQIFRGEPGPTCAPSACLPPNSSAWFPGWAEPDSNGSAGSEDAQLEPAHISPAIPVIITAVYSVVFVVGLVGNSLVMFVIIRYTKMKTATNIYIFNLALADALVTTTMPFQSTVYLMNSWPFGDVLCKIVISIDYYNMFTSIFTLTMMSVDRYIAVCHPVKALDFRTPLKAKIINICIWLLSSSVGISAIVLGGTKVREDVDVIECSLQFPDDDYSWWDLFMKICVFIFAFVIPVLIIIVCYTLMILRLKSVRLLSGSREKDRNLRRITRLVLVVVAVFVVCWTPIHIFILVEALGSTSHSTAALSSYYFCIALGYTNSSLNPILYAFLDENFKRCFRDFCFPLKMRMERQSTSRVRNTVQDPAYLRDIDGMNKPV
T3 sequence (P34975 whole entry): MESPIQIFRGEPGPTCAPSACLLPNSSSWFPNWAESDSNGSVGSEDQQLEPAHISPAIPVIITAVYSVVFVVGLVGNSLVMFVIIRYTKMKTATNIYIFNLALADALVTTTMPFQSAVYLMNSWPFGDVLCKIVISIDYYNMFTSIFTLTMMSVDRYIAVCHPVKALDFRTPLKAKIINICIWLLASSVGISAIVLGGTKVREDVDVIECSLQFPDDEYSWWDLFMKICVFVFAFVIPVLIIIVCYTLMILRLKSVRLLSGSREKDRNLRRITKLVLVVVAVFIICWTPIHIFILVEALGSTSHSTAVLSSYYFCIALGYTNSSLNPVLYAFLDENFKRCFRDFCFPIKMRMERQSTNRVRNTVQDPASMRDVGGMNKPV
T1 sequence (P41143 whole entry): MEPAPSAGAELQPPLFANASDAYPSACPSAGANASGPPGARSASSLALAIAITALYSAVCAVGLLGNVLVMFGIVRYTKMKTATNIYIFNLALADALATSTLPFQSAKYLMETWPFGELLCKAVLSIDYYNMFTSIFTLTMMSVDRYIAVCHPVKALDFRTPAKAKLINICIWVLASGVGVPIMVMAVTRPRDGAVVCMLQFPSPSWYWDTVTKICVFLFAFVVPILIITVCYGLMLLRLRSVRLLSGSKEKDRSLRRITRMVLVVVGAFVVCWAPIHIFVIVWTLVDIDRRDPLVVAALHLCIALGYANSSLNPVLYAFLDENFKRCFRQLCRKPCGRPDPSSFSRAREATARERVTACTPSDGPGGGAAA
T2 sequence (P35372 whole entry): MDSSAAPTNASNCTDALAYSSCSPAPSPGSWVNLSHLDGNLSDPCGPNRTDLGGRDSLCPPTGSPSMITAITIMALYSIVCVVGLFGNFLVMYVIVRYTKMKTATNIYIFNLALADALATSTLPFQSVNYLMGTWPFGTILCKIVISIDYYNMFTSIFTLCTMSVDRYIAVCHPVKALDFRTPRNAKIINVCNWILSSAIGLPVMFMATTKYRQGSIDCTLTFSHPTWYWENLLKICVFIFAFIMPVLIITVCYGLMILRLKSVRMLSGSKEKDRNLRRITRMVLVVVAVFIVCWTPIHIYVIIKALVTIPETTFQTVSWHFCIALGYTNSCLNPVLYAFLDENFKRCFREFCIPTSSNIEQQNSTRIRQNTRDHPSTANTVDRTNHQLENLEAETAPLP
Sequence of Delta-type opioid receptor (Rattus norvegicus, UniProt P33533) (P33533 whole entry): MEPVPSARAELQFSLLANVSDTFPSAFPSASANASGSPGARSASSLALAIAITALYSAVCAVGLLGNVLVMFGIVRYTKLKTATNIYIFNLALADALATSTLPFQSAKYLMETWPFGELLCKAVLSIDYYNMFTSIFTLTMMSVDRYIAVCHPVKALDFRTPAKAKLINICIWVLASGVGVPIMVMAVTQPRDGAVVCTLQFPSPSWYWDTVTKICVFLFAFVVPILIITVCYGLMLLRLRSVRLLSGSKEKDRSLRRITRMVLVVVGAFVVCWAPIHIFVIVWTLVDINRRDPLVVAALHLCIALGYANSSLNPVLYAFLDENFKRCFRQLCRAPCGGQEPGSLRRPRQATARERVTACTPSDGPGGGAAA
Sequence of Mu-type opioid receptor (Rattus norvegicus, UniProt P33535) (P33535 whole entry): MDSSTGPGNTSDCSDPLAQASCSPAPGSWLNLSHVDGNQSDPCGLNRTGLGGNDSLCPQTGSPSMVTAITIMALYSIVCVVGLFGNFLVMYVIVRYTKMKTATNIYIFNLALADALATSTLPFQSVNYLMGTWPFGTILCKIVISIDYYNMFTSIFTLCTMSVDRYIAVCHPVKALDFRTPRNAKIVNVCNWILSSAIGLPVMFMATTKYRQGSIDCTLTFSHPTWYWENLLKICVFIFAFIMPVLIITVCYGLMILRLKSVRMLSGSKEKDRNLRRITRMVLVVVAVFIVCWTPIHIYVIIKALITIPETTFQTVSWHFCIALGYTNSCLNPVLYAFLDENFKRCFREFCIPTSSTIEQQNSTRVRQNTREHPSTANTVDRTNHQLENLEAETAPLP
Sequence of Mu-type opioid receptor (Cavia porcellus, UniProt P97266) (P97266 whole entry): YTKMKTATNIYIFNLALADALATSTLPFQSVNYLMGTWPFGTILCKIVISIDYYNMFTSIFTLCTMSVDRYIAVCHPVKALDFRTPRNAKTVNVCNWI

Which ED50 (Mus musculus [1]) does the source give for O=C1N[C@H](Cc2ccccc2)C(=O)N2CCC[C@@H]2C(=O)N[C@H](Cc2ccccc2)C(=O)N[C@H]1Cc1c[nH]c2ccccc12 here?
Its ED50 is 4.12 mg/kg.

What about the half-life [2] of the same compound?
The half-life was at most 30 min.

What about the ED50 [3] of the same compound?
The ED50 was 5.19 nmol.

What about the ED50 (Mus musculus [4]) of the same compound?
Its ED50 is 1 nmol.

With CCOC(=O)[C@H](Cc1ccccc1)NC(=O)[C@H](Cc1ccccc1)NC(=O)[C@@H]1CCCN1C(=O)[C@@H](N)Cc1ccc(O)cc1 as the compound, how does the half-life [5] read?
Its half-life is 29.9 min.

And the Ki [6]?
The Ki was 2940 nM.

What about the ED50 (Mus musculus [7]) of the same compound?
Its ED50 is 8.4 nmol.

And the Ki (Mu-type opioid receptor [8])?
Its Ki is 15 nM.

What about the half-life [9] of the same compound?
Its half-life is 58.6 min.

Which ED50 (Mus musculus [1]) does the source give for O=C1N[C@H](Cc2ccccc2)C(=O)N[C@H](Cc2c[nH]c3ccccc23)C(=O)N[C@@H](Cc2ccccc2)C(=O)N2CCC[C@H]12 here?
Its ED50 is 4.72 mg/kg.

And the half-life [2]?
The half-life was at most 30 min.

And the ED50 [3]?
The ED50 was 0.49 nmol.

And the ED50 (Mus musculus [4])?
The ED50 was 0.56 nmol.

For CCNC(=O)C[C@H](NC(=O)[C@H](Cc1ccccc1)NC(=O)[C@H](Cc1ccccc1)NC(=O)[C@@H](CCCCNC(=O)C[C@H](NC(=O)[C@H](Cc1ccccc1)NC(=O)[C@H](Cc1ccccc1)NC(=O)CNC(=O)[C@@H](N)Cc1ccc(O)cc1)C(N)=O)NC(=O)[C@@H](N)Cc1ccc(O)cc1)C(N)=O, which IC50 [10] is on record?
Its IC50 is 32 nM.

What about the IC50 [11] of the same compound?
The IC50 was over 1000 nM.

What about the EC50 (Mu-type opioid receptor [12]) of the same compound?
Its EC50 is 5.01 nM.

What about the IC50 (Mu-type opioid receptor [13]) of the same compound?
The IC50 was 26.2 nM.

And the ED50 (Mus musculus [14])?
The ED50 was 1.96 nmol.

Which results are given for N=C(N)NCCC[C@@H](NC(=O)[C@@H](N)Cc1ccc(O)cc1)C(=O)N[C@@H](Cc1ccccc1)C(=O)NCC(=O)N[C@@H](Cc1ccc(O)cc1)C(=O)N1CCC[C@H]1C(=O)N[C@@H](CO)C(N)=O?
ED50 (Mus musculus [15]): 3.5 mg/kg; IC50 (Mu-type opioid receptor [16]): 90 nM; ED50 (Mus musculus [17]): 23 pmol

With CC[C@H]1CN2CCc3c([nH]c4cccc(OC)c34)[C@@H]2C[C@@H]1/C(=C\OC)C(=O)OC as the compound, how does the IC50 [18] read?
Its IC50 is over 10000 nM.

And the Ki [6]?
The Ki was over 10000 nM.

What about the IC50 [19] of the same compound?
Its IC50 is 10000 nM.

For CC[C@@H]1CN2CCc3c([nH]c4cccc(OC)c34)[C@H]2C[C@@H]1/C(=C\OC)C(=O)OC, which IC50 [18] is on record?
Its IC50 is over 10000 nM.

What about the Ki [6] of the same compound?
Its Ki is over 10000 nM.

What about the IC50 [19] of the same compound?
The IC50 was 10000 nM.

Which Ki [20] does the source give for C[C@@H]1NC(=O)[C@H](Cc2c[nH]c3ccccc23)NC(=O)[C@H](Cc2ccccc2)NC(=O)[C@H]2CCCN2C1=O here?
The Ki was 8680 nM.

And the ED50 (Mus musculus [4])?
The ED50 was 1.49 nmol.

And the Ki (Mu-type opioid receptor [21])?
The Ki was 32.2 nM.

And the Ki [22]?
Its Ki is 8 nM.

Which Ki [23] does the source give for NC(=O)[C@@H]1CC(=O)NCCCC[C@@H](NC(=O)[C@@H](N)Cc2ccc(O)cc2)C(=O)N[C@@H](Cc2c[nH]c3ccccc23)C(=O)N[C@@H](Cc2ccccc2)C(=O)N1 here?
The Ki was 83 nM.

What about the ED50 (Rattus norvegicus) of the same compound?
The ED50 was 0.2 nmol.

And the Emax (Mu-type opioid receptor [24])?
The Emax was 100%.

What about the Ki (Mu-type opioid receptor [25]) of the same compound?
Its Ki is 0.49 nM.

What about the EC50 (Mu-type opioid receptor [26]) of the same compound?
Its EC50 is 0.94 nM.

Which results are given for Cc1cc(O)cc(C)c1C[C@H](N)C(=O)N[C@@H]1CCCCNC(=O)C[C@@H](C(N)=O)NC(=O)[C@@H](Cc2cccc3ccccc23)NC(=O)[C@H](Cc2ccccc2)NC1=O (H-[Dmt][dK]F[d1Nal]D-NH2; lactam 2-5)?
Ki [27]: 1.78 nM; ED50 (Mus musculus [14]): 0.06 µg

Which ED50 (Mus musculus [28]) does the source give for COC(=O)[C@@H]1C[C@H](O[C@@H]2CCCCO2)C(=O)[C@H]2[C@@]1(C)CC[C@H]1C(=O)O[C@H](c3ccoc3)C[C@]21C here?
Its ED50 is 1.4 mg/kg.

With O=C1N[C@H](Cc2ccccc2)C(=O)N2CCC[C@@H]2C(=O)N[C@@H](Cc2ccccc2)C(=O)N[C@H]1Cc1c[nH]c2ccccc12 as the compound, how does the ED50 (Mus musculus [1]) read?
The ED50 was 7.62 mg/kg.

What about the half-life [2] of the same compound?
Its half-life is 54 min.

And the ED50 [3]?
Its ED50 is 20.3 nmol.

And the ED50 (Mus musculus [4])?
The ED50 was 0.75 nmol.

What about the Ki (Mu-type opioid receptor [21]) of the same compound?
The Ki was over 100000 nM.

For C[C@H]1NC(=O)[C@H](Cc2ccccc2)NC(=O)[C@H]2CCCN2C(=O)[C@H](Cc2ccccc2)NC1=O, which Ki [29] is on record?
The Ki was 1720 nM.

And the IC50 [30]?
The IC50 was 922 nM.

And the ED50 (Mus musculus [4])?
The ED50 was 0.28 nmol.

And the IC50 (Mu-type opioid receptor [31])?
Its IC50 is 1100 nM.

What about the Ki [32] of the same compound?
The Ki was 10000 nM.

For C[C@@H]1NC(=O)[C@H]2CCCN2C(=O)[C@H](Cc2ccccc2)NC(=O)[C@H](Cc2c[nH]c3ccccc23)NC1=O, which Ki [20] is on record?
Its Ki is over 10000 nM.

And the Ki (Mu-type opioid receptor [21])?
The Ki was 533 nM.

And the Ki [22]?
Its Ki is 663 nM.

Which Ki [20] does the source give for C[C@@H]1C(=O)N[C@@H](Cc2ccccc2)C(=O)N[C@@H](Cc2c[nH]c3ccccc23)C(=O)N[C@@H](Cc2ccccc2)C(=O)N1C here?
Its Ki is 1370 nM.

And the ED50 (Mus musculus [4])?
Its ED50 is 2.43 nmol.

And the Ki (Mu-type opioid receptor [21])?
The Ki was 140 nM.

What about the Ki [22] of the same compound?
The Ki was 113 nM.

Source: ChEMBL document CHEMBL5126521, “Analgesic Opioid Ligand Discovery Based on Nonmorphinan Scaffolds Derived from Natural Sources” (J Med Chem, 2022)
